From article PMC6001238, “Iterative Chemical Engineering of Vancomycin Leads to Novel Vancomycin Analogs With a High in Vitro Therapeutic Index” (Frontiers in Microbiology, 2018)
Values after ≈ are worked out from the molar mass of the structure shown.

How the values were obtained:
[1] = test system: L1210, CEM and HeLa cell lines; assay: Cytostatic activity, average or summary over L1210, CEM and HeLa; assay type: cell-based; details: average of L1210, CEM and HeLa; read-out: Toxicity (IC50) Average
Summary of the method: (§1)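 Test compounds, serially diluted, received an equal volume of cell suspension at 300,000–500,000 cells/mL. After 37°C incubation (2 days for L1210, 3 for CEM, 4 for HeLa), cells were enumerated by Coulter counting and 50%-inhibitory concentrations calculated per cell type.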

MRSA KS2 = assay: MIC, broth microdilution, MRSA KS2; assay type: cell-based, Staphylococcus aureus; details: for MIC-fold improvement vs. vancomycin: MRSA KS2, ratio of MIC of vancomycin and MIC of analogue; for MIC: Staphylococcus aureus MRSA KS2, read-out: MIC
Summary of the method: (§2)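 Controls (ultrapure water; broth not inoculated) were included throughout CLSI-compliant broth microdilution. One condition supplemented analogue or comparator with 10 μM vancomycin, final level.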

MRSA KS1 = assay: MIC, broth microdilution, MRSA KS1; assay type: cell-based, Staphylococcus aureus; details: for MIC-fold improvement vs. vancomycin: MRSA KS1, ratio of MIC of vancomycin and MIC of analogue; for MIC: Staphylococcus aureus MRSA KS1, read-out: MIC
Summary of the method: as §2

S. aureus VRSA = assay: MIC, broth microdilution, vancomycin-resistant S. aureus (VRSA); assay type: cell-based, Staphylococcus aureus; details: for MIC: Staphylococcus aureus VRSA, read-out: MIC; for MIC-fold improvement vs. vancomycin: VRSA, ratio of MIC of vancomycin and MIC of analogue
Summary of the method: as §2

E. faecalis VRE 37 = assay: MIC, broth microdilution, vancomycin-resistant E. faecalis VRE 37 (VanA); assay type: cell-based, Enterococcus faecalis; details: for MIC: Enterococcus faecalis VRE 37 (vancomycin-resistant), read-out: MIC; for MIC-fold improvement vs. vancomycin: VRE 37, ratio of MIC of vancomycin and MIC of analogue
Summary of the method: as §2

MRSA KS6 = assay: MIC, broth microdilution, MRSA KS6; assay type: cell-based, Staphylococcus aureus; details: for MIC-fold improvement vs. vancomycin: MRSA KS6, ratio of MIC of vancomycin and MIC of analogue; for MIC: Staphylococcus aureus MRSA KS6, read-out: MIC
Summary of the method: as §2

[2] = test system: human cervix carcinoma (HeLa) cells; assay: Cytostatic activity, HeLa cell proliferation; assay type: cell-based; details: mean ± SD of three experiments; highest concentration tested 250 µM; 4 days; read-out: Toxicity (IC50) HeLa
Summary of the method: as §1

E. faecalis VRE 53 = assay: MIC, broth microdilution, vancomycin-resistant E. faecalis VRE 53 (VanA); assay type: cell-based, Enterococcus faecalis; details: for MIC: Enterococcus faecalis VRE 53 (vancomycin-resistant), read-out: MIC; for MIC-fold improvement vs. vancomycin: VRE 53, ratio of MIC of vancomycin and MIC of analogue
Summary of the method: as §2

E. faecalis VRE 6 = assay: MIC, broth microdilution, vancomycin-resistant E. faecalis VRE 6 (VanA); assay type: cell-based, Enterococcus faecalis; details: for MIC: Enterococcus faecalis VRE 6 (vancomycin-resistant), read-out: MIC; for MIC-fold improvement vs. vancomycin: VRE 6, ratio of MIC of vancomycin and MIC of analogue
Summary of the method: as §2

[3] = test system: Murine leukemia (L1210) cells; assay: Cytostatic activity, L1210 cell proliferation; assay type: cell-based; details: mean ± SD of three experiments; highest concentration tested 250 µM; 2 days; read-out: Toxicity (IC50) L1210
Summary of the method: as §1

S. aureus VISA/HIP5827 = assay: MIC, broth microdilution, vancomycin-intermediate S. aureus VISA HIP5827; assay type: cell-based, Staphylococcus aureus; details: for MIC: Staphylococcus aureus VISA/HIP5827, read-out: MIC; for MIC-fold improvement vs. vancomycin: VISA/HIP5827, ratio of MIC of vancomycin and MIC of analogue
Summary of the method: as §2

[4] = test system: human T-lymphocyte (CEM) cells; assay: Cytostatic activity, CEM cell proliferation; assay type: cell-based; details: mean ± SD of three experiments; highest concentration tested 250 µM; 3 days; read-out: Toxicity (IC50) CEM
Summary of the method: as §1

MRSA KS89 = assay: MIC, broth microdilution, MRSA KS89; assay type: cell-based, Staphylococcus aureus; details: for MIC-fold improvement vs. vancomycin: MRSA KS8, ratio of MIC of vancomycin and MIC of analogue; for MIC: Staphylococcus aureus MRSA KS8, read-out: MIC
Summary of the method: as §2

E. faecalis VRE 29 = assay: MIC, broth microdilution, vancomycin-resistant E. faecalis VRE 29 (VanA); assay type: cell-based, Enterococcus faecalis; details: for MIC: Enterococcus faecalis VRE 29 (vancomycin-resistant), read-out: MIC; for MIC-fold improvement vs. vancomycin: VRE 29, ratio of MIC of vancomycin and MIC of analogue
Summary of the method: as §2

[5] = test system: S. aureus VSSA (ATCC 6538); assay: MIC, broth microdilution, vancomycin-sensitive S. aureus (VSSA/MSSA, ATCC 6538); assay type: cell-based, Staphylococcus aureus; details: for MIC: Staphylococcus aureus VSSA, read-out: MIC; for MIC-fold improvement vs. vancomycin: VSSA, ratio of MIC of vancomycin and MIC of analogue
Summary of the method: as §2

E. faecalis VSE 1 = assay: MIC, broth microdilution, vancomycin-sensitive E. faecalis (VSE 1); assay type: cell-based, Enterococcus faecalis; details: for MIC: Enterococcus faecalis VSE 1 (vancomycin-sensitive), read-out: MIC; for MIC-fold improvement vs. vancomycin: VSE 1, ratio of MIC of vancomycin and MIC of analogue
Summary of the method: as §2

Row | MIC-fold improvement vs. vancomycin (MRSA KS2) | MIC (MRSA KS2) [µM] | MIC-fold improvement vs. vancomycin (MRSA KS1) | MIC (MRSA KS1) [µM] | MIC (S. aureus VRSA) [µM] | MIC-fold improvement vs. vancomycin (S. aureus VRSA) | MIC (E. faecalis VRE 37) [µM] | MIC-fold improvement vs. vancomycin (E. faecalis VRE 37) | MIC-fold improvement vs. vancomycin (MRSA KS6) | MIC (MRSA KS6) [µM] | MIC (E. faecalis VRE 53) [µM] | MIC (E. faecalis VRE 6) [µM] | MIC-fold improvement vs. vancomycin (E. faecalis VRE 6) | MIC (S. aureus VISA/HIP5827) [µM] | MIC-fold improvement vs. vancomycin (S. aureus VISA/HIP5827) | MIC-fold improvement vs. vancomycin (MRSA KS89) | SMILES | IC50 [1] [µM] | IC50 [2] [µM] | IC50 [3] [µM] | IC50 [4] [µM] | also measured
1 | 8 | 0.10 (≈ 0.169 µg/mL) | 8 | 0.10 (≈ 0.169 µg/mL) | 0.78 (≈ 1.32 µg/mL) | 128 | 3.13 (≈ 5.3 µg/mL) | 128 | 4 | 0.20 (≈ 0.338 µg/mL) | 3.13 (≈ 5.3 µg/mL) | 0.78 (≈ 1.32 µg/mL) | 256 | 0.39 (≈ 0.66 µg/mL) | 16 | 4 | CNC(CC(C)C)C(=O)NC1C(=O)NC(CC(N)=O)C(=O)NC2C(=O)NC3C(=O)NC(C(=O)NC(C(=O)NCC(=O)Nc4ccc(-c5ccc(Cl)cc5)cc4)c4cc(O)cc(O)c4-c4cc3ccc4O)C(O)c3ccc(c(Cl)c3)Oc3cc2cc(c3OC2OC(CO)C(O)C(O)C2OC2CC(C)(N)C(O)C(C)O2)Oc2ccc(cc2Cl)C1O (stereo not shown) [Vanc-84] | 5 | 13 | 1.5 ± 0.1 | 1.6 ± 0.9 | MIC-fold improvement vs. vancomycin (E. faecalis VRE 53): 128; MIC (MRSA KS89): 0.20 µM (≈ 0.338 µg/mL); MIC (E. faecalis VRE 29): 0.78 µM (≈ 1.32 µg/mL); MIC-fold improvement vs. vancomycin (E. faecalis VRE 29): 512; MIC [5]: 0.10 µM (≈ 0.169 µg/mL); MIC-fold improvement vs. vancomycin [5]: 8; MIC (E. faecalis VSE 1): ≤0.05 µM; MIC-fold improvement vs. vancomycin (E. faecalis VSE 1): ≥32
2 | 2 | 0.39 (≈ 0.63 µg/mL) | 2 | 0.39 (≈ 0.63 µg/mL) | 3.13 (≈ 5.06 µg/mL) | 32 | 12.5 (≈ 20.2 µg/mL) | 64 | 2 | 0.39 (≈ 0.63 µg/mL) | 12.5 (≈ 20.2 µg/mL) | 3.13 (≈ 5.06 µg/mL) | 64 | 0.39 (≈ 0.63 µg/mL) | 16 | 2 | CN[C@H](CC(C)C)C(=O)N[C@H]1C(=O)N[C@@H](CC(N)=O)C(=O)N[C@H]2C(=O)N[C@H]3C(=O)N[C@H](C(=O)N[C@H](C(=O)NCC(=O)Nc4ccc(Cl)cc4)c4cc(O)cc(O)c4-c4cc3ccc4O)[C@H](O)c3ccc(c(Cl)c3)Oc3cc2cc(c3O[C@@H]2O[C@H](CO)[C@@H](O)[C@H](O)[C@H]2O[C@H]2C[C@](C)(N)[C@H](O)[C@H](C)O2)Oc2ccc(cc2Cl)[C@H]1O [Vanc-6] | 167 | 91 ± 33 | > 250 | 159 ± 13 | MIC (MRSA KS89): 0.39 µM (≈ 0.63 µg/mL); MIC (E. faecalis VRE 29): 6.25 µM (≈ 10.1 µg/mL); MIC [5]: 0.39 µM (≈ 0.63 µg/mL); MIC-fold improvement vs. vancomycin [5]: 2; MIC (E. faecalis VSE 1): 0.39 µM (≈ 0.63 µg/mL); MIC-fold improvement vs. vancomycin (E. faecalis VSE 1): 4
3 | 1 | 0.78 (≈ 1.25 µg/mL) | 1 | 0.78 (≈ 1.25 µg/mL) | 25 (≈ 39.9 µg/mL) | 4 | 50 (≈ 79.9 µg/mL) | 16 | 1 | 0.78 (≈ 1.25 µg/mL) | 25 (≈ 39.9 µg/mL) | 25 (≈ 39.9 µg/mL) | 8 | 0.78 (≈ 1.25 µg/mL) | 8 | 1 | CNC(CC(C)C)C(=O)NC1C(=O)NC(CC(N)=O)C(=O)NC2C(=O)NC3C(=O)NC(C(=O)NC(C(=O)NCC(=O)Nc4ccc(O)cc4)c4cc(O)cc(O)c4-c4cc3ccc4O)C(O)c3ccc(c(Cl)c3)Oc3cc2cc(c3OC2OC(CO)C(O)C(O)C2OC2CC(C)(N)C(O)C(C)O2)Oc2ccc(cc2Cl)C1O (stereo not shown) [Vanc-1] | 191 | 72 ± 10 | > 250 | > 250 | MIC-fold improvement vs. vancomycin (E. faecalis VRE 53): 16; MIC (MRSA KS89): 0.78 µM (≈ 1.25 µg/mL); MIC (E. faecalis VRE 29): >50 µM; MIC-fold improvement vs. vancomycin (E. faecalis VRE 29): <8; MIC [5]: 0.78 µM (≈ 1.25 µg/mL); MIC-fold improvement vs. vancomycin [5]: 1; MIC (E. faecalis VSE 1): 0.78 µM (≈ 1.25 µg/mL); MIC-fold improvement vs. vancomycin (E. faecalis VSE 1): 2
